According to PubChem BioAssay (NCI):
Values joined by “and” are separate entries in the source; they are usually repeats but may differ in a detail not shown here. Equal entries are not always repeated.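 Dose response: 5 concentrations. Exposure: 48 h. Format: 96-well plates. Endpoint: linear interpolation; highest concentration if not reached. GI50 = concentration required for 50% inhibition of growth. At the TGI there is no net growth.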

How the values were obtained:
Assay in all cases: NCI tumour cell line growth inhibition, 48 h
[1] = tested on: A549 NSCLC
[2] = tested on: BT-549 breast
[3] = tested on: K-562 leukemia
[4] = tested on: MDA-MB-231 breast
[5] = tested on: NCI/ADR-RES ovarian
[6] = tested on: RXF 393 renal
[7] = tested on: U251 CNS
[8] = tested on: NCI-H460 lung

Row | Compound | GI50 [1] | TGI [1] [µM] | GI50 [2] [µM] | TGI [2] [µM] | GI50 [3] | TGI [3] [µM] | GI50 [4] | TGI [4] [µM] | GI50 [5] | TGI [5] [µM] | GI50 [6] [µM] | TGI [6] | GI50 [7] | TGI [7] [µM] | GI50 [8] | TGI [8] [µM]
1 | O=S(=O)(NC1=NCCN1C(=S)SN1CCn2c1nsc2=S)c1ccccc1Cl | 32.5 µM | > 100 | 8 | 36 | 4.62 µM | 46.3 | 22.5 µM | 71.1 | 27.7 µM | > 100 | 4.38 | 46.5 µM | 21.4 µM | 46 | – | –
2 | O=C(N/N=C/c1ccc(Cl)cc1Cl)c1ccc2nc(-c3ccc(Cl)cc3)[nH]c2c1 | 2.16 µM | 4.53 | 4.93 | 21.3 | 0.969 µM | 3.23 | 1.85 µM | 3.77 | 1.83 µM | 4.44 | 1.61 | 3.27 µM | 2.1 µM | 4.18 | 1.56 µM | 3.13
3 | COc1cc(F)c(/C=C/c2cc(/C=C/c3cc(OC)c(OC)cc3F)n(-c3cc(F)cc(F)c3)n2)cc1OC | 3.29 µM | 11.4 | 2.35 | 7.51 | 3.08 µM | > 100 | 2.62 µM | 8.86 | 2.23 µM | 5.65 | 5.07 | 18.4 µM | 1.69 µM | 3.15 | 3.43 µM | 12.2
4 | COc1cc(NC(=O)NCc2ccco2)ccc1-c1ccc(NC(=O)NCc2ccco2)cc1OC | 1.74 µM | 28.3 | – | – | 0.773 µM | > 100 | 1.41 µM | 3.98 | > 100 µM | > 100 | 1.88 | 6.22 µM | 0.957 µM | 4.3 | 0.526 µM | > 100
5 | CCc1ccc2nccc(NCCCN(C)C)c2c1[N+](=O)[O-] | – | > 100 | – | – | – | > 100 | – | > 100 | – | > 100 | – | > 100 µM | – | > 100 | – | > 100
6 | C[C@@H](COCCC(=O)N1CCN(c2ncc(C(F)(F)F)cn2)CC1)Nc1cn[nH]c(=O)c1C(F)(F)F | 45.7 µM | > 100 | 0.078 | > 100 | 36.9 µM | > 100 | > 100 µM | > 100 | > 90.5 µM | > 100 | 32.8 | > 100 µM | 29.3 µM | > 100 | 18.6 µM | > 100
7 | CCNNC(=O)[C@@H]1[C@H](c2cc(OC)c(OC)c(OC)c2)c2cc3c(cc2[C@H](O)[C@H]1CO)OCO3 | 0.376 µM | > 100 | 0.413 | – | 0.349 µM | > 100 | 0.5 µM | > 100 | 0.509 µM | 17.7 | 0.34 | > 100 µM | 0.321 µM | > 100 | 0.343 µM | > 100
8 | COc1cccc(CCC(=O)c2cc3c(N)c(C(=O)Nc4cccc(Cl)c4C)sc3nc2C)c1 | 0.687 µM | > 100 | 0.951 | 99.6 | 0.396 µM | > 100 | 1.4 µM | > 78.6 | 0.388 µM | 10.4 | 0.393 | 2.95 µM | 0.445 µM | > 100 | 0.376 µM | > 75.2
9 | Nc1cc(S(N)(=O)=O)ccc1SSc1ccc(S(N)(=O)=O)cc1N | – | > 100 | – | > 100 | – | > 100 | – | > 100 | – | > 100 | – | > 100 µM | – | > 100 | – | > 100
10 | CCOc1nccc2c1nc(-c1nonc1N)n2CC | > 25 µM | > 25 | > 25 | > 25 | > 25 µM | > 25 | > 25 µM | > 25 | > 25 µM | > 25 | > 25 | > 25 µM | > 25 µM | > 25 | > 25 µM | > 25
11 | Nc1c(C(=O)N/N=C/c2ccc(-c3cc(Cl)c(Cl)cc3Cl)o2)cnn1-c1ccnc2c(C(F)(F)F)cccc12 | 4.3 µM | > 100 | – | – | 3 µM | > 100 | 3.83 µM | 22 | 3.58 µM | 87.9 | – | – | 4.18 µM | > 100 | 3.73 µM | 16.9
12 | COc1ccc(-c2ccc(-c3ccc(C(=N)N)cn3)o2)cc1Cl | 2.59 µM | 6.56 | 1.75 | 3.21 | 2.7 µM | 7.5 | 1.81 µM | 3.41 | 2.56 µM | 8.09 | 1.61 | 3.07 µM | 1.79 µM | 3.53 | 1.89 µM | 3.63
13 | O=c1oc2c3ccc4cnccc4c3[nH]c2c2ccccc12 | 3.96 µM | > 100 | 14.2 | 29.2 | 27.7 µM | > 100 | 16.9 µM | 38.5 | 66.4 µM | > 100 | 5.72 | 19.4 µM | 7.57 µM | 20.8 | 9.35 µM | 30.2
14 | CC(C)C[C@H](NC(=O)[C@@H](NC(=O)c1cccc(-c2ccccc2)n1)[C@@H](C)O)B(O)O | 0.0173 µM and 0.0188 µM | 8.58 | 0.0047 | – | 0.00649 µM and 0.019 µM | 30.8 | 0.00485 µM and 0.0191 µM | – | 0.345 µM and 0.249 µM | 6.19 | 0.00414 | 0.0151 µM and < 0.0119 µM | 0.0251 µM and 0.0176 µM | 1.92 | 0.0285 µM and 0.0237 µM | 0.532
15 | O=C(COc1cccc(/C=C2\Oc3ccc4ccccc4c3C2=O)c1)c1ccc(Cl)cc1 | > 100 µM | > 100 | 20.5 | 61.7 | 10.8 µM | 25.5 | 43.5 µM | > 100 | > 100 µM | > 100 | 25 | 61.6 µM | 27.2 µM | > 100 | > 100 µM | > 100
